Measured values: patent US20240415914A1, “Water Dispersible Cannabinoid Compositions” (priority 2021, published 2024)
Read-outs that look alike come from different tables or passages of the source.

Key:
[1] = format: physicochemical; settings: stored at room temperature (21-25° C.)
Description: At each time period, 0.05 g of powder was dissolved in 10 ml-15 of ethanol, diluted to fall within the analytical range, and injected into the LCMSMS for analysis.

[2] = Stability of cannabinoid and Vitamin E components of Beverage 2 (AB Red) stored at 8° C. and 21-25° C., LCMSMS over 570 days
Description: The LCMSMS was calibrated for 0-50 ng/ml cannabinoids with the same resin material used in the preparation of the concentrates. At each time period, 100 μml of beverage was diluted with 10 ml of methanol and injected into the LCMSMS for analysis.

SMILES: CC(=O)Oc1c(C)c(C)c2c(c1C)CCC(C)(CCC[C@H](C)CCC[C@H](C)CCCC(C)C)O2 (stereo partly drawn) [α-Tocopheryl acetate]
- Stability in Powder Concentrate (content by LCMSMS) ([1]; day 0): 2.15 mg/g powder
- Stability in Powder Concentrate (content by LCMSMS) ([1]; day 1): 2.19 mg/g powder
- Stability in Powder Concentrate (content by LCMSMS) ([1]; day 2): 2.11 mg/g powder
- Stability in Powder Concentrate (content by LCMSMS) ([1]; day 3): 2.18 mg/g powder
- Stability in Powder Concentrate (content by LCMSMS) ([1]; day 5): 2.24 mg/g powder
- Stability in Powder Concentrate (content by LCMSMS) ([1]; day 8): 2.23 mg/g powder
- Stability in Powder Concentrate (content by LCMSMS) ([1]; day 9): 2.09 mg/g powder
- Stability in Powder Concentrate (content by LCMSMS) ([1]; day 10): 2.09 mg/g powder
- Stability in Powder Concentrate (content by LCMSMS) ([1]; day 11): 2.20 mg/g powder
- Stability in Powder Concentrate (content by LCMSMS) ([1]; day 12): 2.17 mg/g powder
- Stability in Powder Concentrate (content by LCMSMS) ([1]; day 15): 2.24 mg/g powder
- Stability in Powder Concentrate (content by LCMSMS) ([1]; day 16): 2.15 mg/g powder
- Stability in Powder Concentrate (content by LCMSMS) ([1]; day 17): 2.13 mg/g powder
- Stability in Powder Concentrate (content by LCMSMS) ([1]; day 18): 2.10 mg/g powder
- Stability in Powder Concentrate (content by LCMSMS) ([1]; day 19): 2.21 mg/g powder
- Stability in Powder Concentrate (content by LCMSMS) ([1]; day 22): 2.11 mg/g powder
- Stability in Powder Concentrate (content by LCMSMS) ([1]; day 23): 2.16 mg/g powder
- Stability in Powder Concentrate (content by LCMSMS) ([1]; day 24): 2.09 mg/g powder
- Stability in Powder Concentrate (content by LCMSMS) ([1]; day 25): 2.24 mg/g powder
- Stability in Powder Concentrate (content by LCMSMS) ([1]; day 26): 2.10 mg/g powder
- Stability in Powder Concentrate (content by LCMSMS) ([1]; day 29): 2.21 mg/g powder
- Stability in Powder Concentrate (content by LCMSMS) ([1]; day 30): 2.08 mg/g powder
- Stability in Powder Concentrate (content by LCMSMS) ([1]; day 60): 2.15 mg/g powder
- Stability in Powder Concentrate (content by LCMSMS) ([1]; day 90): 2.24 mg/g powder
- Stability in Powder Concentrate (content by LCMSMS) ([1]; day 120): 2.17 mg/g powder
- Stability in Powder Concentrate (content by LCMSMS) ([1]; day 150): 2.18 mg/g powder
- Stability in Powder Concentrate (content by LCMSMS) ([1]; day 180): 2.20 mg/g powder
- Stability in Powder Concentrate (content by LCMSMS) ([1]; day 210): 2.15 mg/g powder
- Stability in Powder Concentrate (content by LCMSMS) ([1]; day 240): 2.23 mg/g powder
- Stability in Powder Concentrate (content by LCMSMS) ([1]; day 270): 2.13 mg/g powder
- Stability in Powder Concentrate (content by LCMSMS) ([1]; day 300): 2.09 mg/g powder
- Stability in Powder Concentrate (content by LCMSMS) ([1]; day 330): 2.15 mg/g powder
- Stability in Powder Concentrate (content by LCMSMS) ([1]; day 360): 2.12 mg/g powder
- Stability in Powder Concentrate (content by LCMSMS) ([1]; day 390): 2.21 mg/g powder
- Stability in Powder Concentrate (content by LCMSMS) ([1]; day 420): 2.21 mg/g powder
- Stability in Powder Concentrate (content by LCMSMS) ([1]; day 450): 2.07 mg/g powder
- Stability in Powder Concentrate (content by LCMSMS) ([1]; day 480): 2.10 mg/g powder
- Stability in Powder Concentrate (content by LCMSMS) ([1]; day 510): 2.15 mg/g powder
- Stability in Powder Concentrate (content by LCMSMS) ([1]; day 540): 2.21 mg/g powder
- Stability in Powder Concentrate (content by LCMSMS) ([1]; day 570): 2.13 mg/g powder
- Stability of Vitamin Es in AB Red ([2]; 8° C., 0 days): 12.5 µg/mL
- Stability of Vitamin Es in AB Red ([2]; 8° C., 1 days): 11.6 µg/mL
- Stability of Vitamin Es in AB Red ([2]; 8° C., 2 days): 11.5 µg/mL
- Stability of Vitamin Es in AB Red ([2]; 8° C., 3 days): 11.6 µg/mL
- Stability of Vitamin Es in AB Red ([2]; 8° C., 5 days): 12.3 µg/mL
- Stability of Vitamin Es in AB Red ([2]; 8° C., 8 days): 12.2 µg/mL
- Stability of Vitamin Es in AB Red ([2]; 8° C., 9 days): 12.1 µg/mL
- Stability of Vitamin Es in AB Red ([2]; 8° C., 10 days): 12.6 µg/mL
- Stability of Vitamin Es in AB Red ([2]; 8° C., 11 days): 11.9 µg/mL
- Stability of Vitamin Es in AB Red ([2]; 8° C., 12 days): 12.4 µg/mL
- Stability of Vitamin Es in AB Red ([2]; 8° C., 15 days): 12.0 µg/mL
- Stability of Vitamin Es in AB Red ([2]; 8° C., 16 days): 11.5 µg/mL
- Stability of Vitamin Es in AB Red ([2]; 8° C., 17 days): 11.8 µg/mL
- Stability of Vitamin Es in AB Red ([2]; 8° C., 18 days): 12.5 µg/mL
- Stability of Vitamin Es in AB Red ([2]; 8° C., 19 days): 12.5 µg/mL
- Stability of Vitamin Es in AB Red ([2]; 8° C., 22 days): 12.5 µg/mL
- Stability of Vitamin Es in AB Red ([2]; 8° C., 23 days): 11.9 µg/mL
- Stability of Vitamin Es in AB Red ([2]; 8° C., 24 days): 12.6 µg/mL
- Stability of Vitamin Es in AB Red ([2]; 8° C., 25 days): 12.3 µg/mL
- Stability of Vitamin Es in AB Red ([2]; 8° C., 26 days): 11.6 µg/mL
- Stability of Vitamin Es in AB Red ([2]; 8° C., 29 days): 11.7 µg/mL
- Stability of Vitamin Es in AB Red ([2]; 8° C., 30 days): 12.1 µg/mL
- Stability of Vitamin Es in AB Red ([2]; 8° C., 60 days): 11.4 µg/mL
- Stability of Vitamin Es in AB Red ([2]; 8° C., 90 days): 11.6 µg/mL
- Stability of Vitamin Es in AB Red ([2]; 8° C., 120 days): 11.7 µg/mL
- Stability of Vitamin Es in AB Red ([2]; 8° C., 150 days): 12.3 µg/mL
- Stability of Vitamin Es in AB Red ([2]; 8° C., 180 days): 12.6 µg/mL
- Stability of Vitamin Es in AB Red ([2]; 8° C., 210 days): 11.8 µg/mL
- Stability of Vitamin Es in AB Red ([2]; 8° C., 240 days): 11.2 µg/mL
- Stability of Vitamin Es in AB Red ([2]; 8° C., 270 days): 11.6 µg/mL
- Stability of Vitamin Es in AB Red ([2]; 8° C., 300 days): 11.2 µg/mL
- Stability of Vitamin Es in AB Red ([2]; 8° C., 330 days): 11.3 µg/mL
- Stability of Vitamin Es in AB Red ([2]; 8° C., 390 days): 11.4 µg/mL
- Stability of Vitamin Es in AB Red ([2]; 8° C., 420 days): 11.2 µg/mL
- Stability of Vitamin Es in AB Red ([2]; 8° C., 450 days): 11.4 µg/mL
- Stability of Vitamin Es in AB Red ([2]; 8° C., 480 days): 10.7 µg/mL
- Stability of Vitamin Es in AB Red ([2]; 8° C., 510 days): 10.6 µg/mL
- Stability of Vitamin Es in AB Red ([2]; 8° C., 540 days): 10.8 µg/mL
- Stability of Vitamin Es in AB Red ([2]; 8° C., 570 days): 10.8 µg/mL
- Stability of Vitamin Es in AB Red ([2]; 21-25° C., 0 days): 12.5 µg/mL
- Stability of Vitamin Es in AB Red ([2]; 21-25° C., 1 days): 12.1 µg/mL
- Stability of Vitamin Es in AB Red ([2]; 21-25° C., 2 days): 12.5 µg/mL
- Stability of Vitamin Es in AB Red ([2]; 21-25° C., 3 days): 11.7 µg/mL
- Stability of Vitamin Es in AB Red ([2]; 21-25° C., 5 days): 12.2 µg/mL
- Stability of Vitamin Es in AB Red ([2]; 21-25° C., 8 days): 11.4 µg/mL
- Stability of Vitamin Es in AB Red ([2]; 21-25° C., 9 days): 11.6 µg/mL
- Stability of Vitamin Es in AB Red ([2]; 21-25° C., 10 days): 12.5 µg/mL
- Stability of Vitamin Es in AB Red ([2]; 21-25° C., 11 days): 12.3 µg/mL
- Stability of Vitamin Es in AB Red ([2]; 21-25° C., 12 days): 12.3 µg/mL
- Stability of Vitamin Es in AB Red ([2]; 21-25° C., 15 days): 12.1 µg/mL
- Stability of Vitamin Es in AB Red ([2]; 21-25° C., 16 days): 12.1 µg/mL
- Stability of Vitamin Es in AB Red ([2]; 21-25° C., 17 days): 11.3 µg/mL
- Stability of Vitamin Es in AB Red ([2]; 21-25° C., 18 days): 12.0 µg/mL
- Stability of Vitamin Es in AB Red ([2]; 21-25° C., 19 days): 12.0 µg/mL
- Stability of Vitamin Es in AB Red ([2]; 21-25° C., 22 days): 12.1 µg/mL
- Stability of Vitamin Es in AB Red ([2]; 21-25° C., 23 days): 11.7 µg/mL
- Stability of Vitamin Es in AB Red ([2]; 21-25° C., 24 days): 11.5 µg/mL
- Stability of Vitamin Es in AB Red ([2]; 21-25° C., 25 days): 12.4 µg/mL
- Stability of Vitamin Es in AB Red ([2]; 21-25° C., 26 days): 12.0 µg/mL
- Stability of Vitamin Es in AB Red ([2]; 21-25° C., 29 days): 11.9 µg/mL
- Stability of Vitamin Es in AB Red ([2]; 21-25° C., 30 days): 12.6 µg/mL
- Stability of Vitamin Es in AB Red ([2]; 21-25° C., 60 days): 11.6 µg/mL
- Stability of Vitamin Es in AB Red ([2]; 21-25° C., 90 days): 12.3 µg/mL
- Stability of Vitamin Es in AB Red ([2]; 21-25° C., 120 days): 12.3 µg/mL
- Stability of Vitamin Es in AB Red ([2]; 21-25° C., 150 days): 11.4 µg/mL
- Stability of Vitamin Es in AB Red ([2]; 21-25° C., 180 days): 12.0 µg/mL
- Stability of Vitamin Es in AB Red ([2]; 21-25° C., 210 days): 11.6 µg/mL
- Stability of Vitamin Es in AB Red ([2]; 21-25° C., 240 days): 11.3 µg/mL
- Stability of Vitamin Es in AB Red ([2]; 21-25° C., 270 days): 11.4 µg/mL
- Stability of Vitamin Es in AB Red ([2]; 21-25° C., 300 days): 11.2 µg/mL
- Stability of Vitamin Es in AB Red ([2]; 21-25° C., 330 days): 11.6 µg/mL
- Stability of Vitamin Es in AB Red ([2]; 21-25° C., 390 days): 11.3 µg/mL
- Stability of Vitamin Es in AB Red ([2]; 21-25° C., 420 days): 11.3 µg/mL
- Stability of Vitamin Es in AB Red ([2]; 21-25° C., 450 days): 11.2 µg/mL
- Stability of Vitamin Es in AB Red ([2]; 21-25° C., 480 days): 10.4 µg/mL
- Stability of Vitamin Es in AB Red ([2]; 21-25° C., 510 days): 10.4 µg/mL
- Stability of Vitamin Es in AB Red ([2]; 21-25° C., 540 days): 10.6 µg/mL
- Stability of Vitamin Es in AB Red ([2]; 21-25° C., 570 days): 10.6 µg/mL
